This note sets out measurements from US12516067B2, “Antagonists of the muscarinic acetylcholine receptor M4” (Vanderbilt University, priority 2020, dated 2026).

The target of the experiment is T1, Human M4 (Homo sapiens, UniProt P08173).
T1 construct: expressed in transfected cells; host or cells: CHO-K1 (ATCC), co-transfected with chimeric G protein Gqi5
T1 sequence (P08173 1-479): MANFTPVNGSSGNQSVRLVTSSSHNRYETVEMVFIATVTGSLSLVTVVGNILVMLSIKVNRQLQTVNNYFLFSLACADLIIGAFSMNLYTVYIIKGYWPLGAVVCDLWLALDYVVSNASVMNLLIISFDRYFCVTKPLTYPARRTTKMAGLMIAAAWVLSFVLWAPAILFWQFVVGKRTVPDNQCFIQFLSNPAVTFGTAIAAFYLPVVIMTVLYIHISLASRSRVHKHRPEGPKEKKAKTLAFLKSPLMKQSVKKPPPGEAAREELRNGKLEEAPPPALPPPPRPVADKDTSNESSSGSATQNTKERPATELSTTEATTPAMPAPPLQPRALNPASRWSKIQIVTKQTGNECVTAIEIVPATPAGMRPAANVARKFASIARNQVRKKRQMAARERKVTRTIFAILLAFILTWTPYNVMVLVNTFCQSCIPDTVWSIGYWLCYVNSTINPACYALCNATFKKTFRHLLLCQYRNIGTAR
In words: mAChR M4 cell-based functional assay (calcium flux, decrease of EC80 acetylcholine response) in M4/Gqi5/CHO-K1 cells. The note with it: CHO-K1 cells with human M4 and Gqi5; for remaining activity at 30 µM: % ACh maximum at 30 μM, read-out: Human M4 Emin; for IC50: antagonist mode: concentration-dependent decrease of response to EC80 acetylcholine. The protocol: Human or rat M4 cDNA, along with the chimeric G protein Gqi5, were transfected into Chinese hamster ovary (CHO-K1) cells purchased from the American Type Culture Collection using Lipofectamine2000. M4/Gqi5/CHO cells were grown in Ham's F-12 medium containing 10% heat-inactivated fetal bovine serum (FBS), 20 mM HEPES, 500 μg/mL G418 sulfate, and 200 μg/mL Hygromycin B.
For high throughput measurement of agonist-evoked increases in intracellular calcium, CHO-K1 cells stably expressing muscarinic receptors were plated in growth medium lacking G418 and hygromycin at 15,000 cells/20 μL/well in Greiner 384-well black-walled, tissue culture (TC)-treated, clear-bottom plates (VWR). Cells were incubated overnight at 37° C. and 5% CO2. The next day, cells were washed using an ELX 405 (BioTek) with assay buffer; the final volume was then aspirated to 20 μL. Next, 20 μL of a 2.3 μM stock of Fluo-4/acetoxymethyl ester (Invitrogen, Carlsbad, CA), prepared as a 2.3 mM stock in DMSO and mixed in a 1:1 ratio with 10% (w/v) Pluronic F-127 and diluted in assay buffer, was added to the wells and the cell plates were incubated for 50 min at 37° C. and 5% CO2. Dye was removed by washing with the ELX 405 and the final volume was aspirated to 20 μL. Compound master plates were formatted in a 10 point concentration-response curve (CRC) format (1:3 dilutions) in 100% DMSO with a starting concentration of 10 or 1 mM using a BRAVO liquid handler (Agilent). Test compound CRCs were then transferred to daughter plates (240 nL) using the Echo acoustic plate reformatter (Labcyte, Sunnyvale, CA) and then diluted into assay buffer (40 μL) to a 2× stock using a Thermo Fisher Combi (Thermo Fisher Scientific, Waltham, MA).
Calcium flux was measured using the Functional Drug Screening System (FDSS) 6000 or 7000 (Hamamatsu Corporation, Tokyo, Japan) as an increase in the fluorescent static ratio. Compounds were applied to cells (20 μL, 2×) using the automated system of the FDSS at 2 seconds into the protocol and the data were collected at 1 Hz. At 143 s, 10 μL of an EC20 concentration of the muscarinic receptor agonist acetylcholine was added (5×), followed by the addition of 12 μL of an EC80 concentration of acetylcholine at the 268 s time point (5×). Agonist activity was analyzed as a concentration-dependent increase in calcium mobilization upon compound addition. Positive allosteric modulator activity was analyzed as a concentration-dependent increase in the EC20 acetylcholine response. Antagonist activity was analyzed as a concentration-dependent decrease in the EC80 acetylcholine response; for the purposes of the tables herein, an IC50 (inhibitory concentration 50) was calculated as a concentration-dependent decrease of the response elicited by an EC80 concentration of acetylcholine. Concentration-response curves were generated using a four-parameter logistical equation in XLFit curve fitting software (IDBS, Bridgewater, NJ) for Excel (Microsoft, Redmond, WA) or Prism (GraphPad Software, Inc., San Diego, CA) or the Dotmatics software platform (Dotmatics, Bishop's Stortford, UK).
Compounds were synthesized as described above. Activity (IC50 and Emin) was determined in the mAChR M4 cell-based functional assay as described above and the data are shown in Table 1.
Background: A change in cytosolic calcium serves as a functional read-out for many receptors and channels.

On to `c1ccc(-c2ccc(NCc3cccc4c3CCN(CC3CCOCC3)C4)nn2)cc1` [B12, 6-phenyl-N-((2-((tetrahydro-2H-pyran-4-yl)methyl)-1,2,3,4-tetrahydroisoquinolin-5-yl)methyl)pyridazin-3-amine], for which the remaining activity at 30 µM came to 13% and the IC50 is 3380 nM.
Regarding `Cc1ccc(F)cc1-c1ccc(NCc2csc3c2CCN(CC2CCOCC2)C3)nn1` [A5, 6-(5-fluoro-2-methylphenyl)-N-((6-((tetrahydro-2H-pyran-4-yl)methyl)-4,5,6,7-tetrahydrothieno[2,3-c]pyridin-3-yl)methyl)pyridazin-3-amine], the remaining activity at 30 µM came out at 5% and the IC50 was 77.3 nM.
Consider `Fc1cc(F)c(F)c(-c2ccc(NCc3csc4c3CCN(CC3CCOCC3)C4)nn2)c1` [A1, N-((6-((tetrahydro-2H-pyran-4-yl)methyl)-4,5,6,7-tetrahydrothieno[2,3-c]pyridin-3-yl)methyl)-6-(2,3,5-trifluorophenyl)pyridazin-3-amine], for which the remaining activity at 30 µM was 3% and the IC50 worked out at 595 nM.
Taken in the same sequence, the figures for `OC1(CN2CCc3c(CNc4ccc(-c5cc(F)ccc5Cl)nn4)csc3C2)CCCCC1` [A13, 1-((3-(((6-(2-chloro-5-fluorophenyl)pyridazin-3-yl)amino)methyl)-4,7-dihydrothieno[2,3-c]pyridin-6(5H)-yl)methyl)cyclohexan-1-ol] were 4% and 276 nM.
In the same order, the values of `Fc1ccc(Cl)c(-c2ccc(NCc3csc4c3CCN(CC3CCOCC3)C4)nn2)c1` [A2, 6-(2-chloro-5-fluorophenyl)-N-((6-((tetrahydro-2H-pyran-4-yl)methyl)-4,5,6,7-tetrahydrothieno[2,3-c]pyridin-3-yl)methyl)pyridazin-3-amine] are 3% and 85.2 nM.
Taken in the same sequence, the figures for `Fc1ccc(Cl)c(-c2ccc(NCc3csc4c3CCN(CC3CCCCC3)C4)nn2)c1` [A9, 6-(2-chloro-5-fluorophenyl)-N-((6-(cyclohexylmethyl)-4,5,6,7-tetrahydrothieno[2,3-c]pyridin-3-yl)methyl)pyridazin-3-amine] were 5% and 99.7 nM.
As for `Fc1ccc(F)c(-c2ccc(NCc3csc4c3CCN(CC3CCOCC3)C4)nn2)c1` [A4, 6-(2,5-difluorophenyl)-N-((6-((tetrahydro-2H-pyran-4-yl)methyl)-4,5,6,7-tetrahydrothieno[2,3-c]pyridin-3-yl)methyl)pyridazin-3-amine], the remaining activity at 30 µM amounted to 4% and the IC50 came out at 420 nM.
Taken in the same sequence, the figures for `CC(=O)Nc1ccc(-c2ccc(NCc3cccc4c3CCN(CC3CCOCC3)C4)nn2)cc1` [B11, N-(4-(6-(((2-((tetrahydro-2H-pyran-4-yl)methyl)-1,2,3,4-tetrahydroisoquinolin-5-yl)methyl)amino)pyridazin-3-yl)phenyl)acetamide] were 12% and 2700 nM.
Consider `Fc1ccc(Cl)c(-c2ccc(NCc3cccc4c3CCN(CC3CCOCC3)C4)nn2)c1` [B1, 6-(2-chloro-5-fluorophenyl)-N-((2-((tetrahydro-2H-pyran-4-yl)methyl)-1,2,3,4-tetrahydroisoquinolin-5-yl)methyl)pyridazin-3-amine], for which the remaining activity at 30 µM worked out at 6% and the IC50 is 356 nM.
Take `FC1(F)CCN(c2ccc(NCc3csc4c3CCN(CC3CCOCC3)C4)nn2)CC1` [A6, 6-(4,4-difluoropiperidin-1-yl)-N-((6-((tetrahydro-2H-pyran-4-yl)methyl)-4,5,6,7-tetrahydrothieno[2,3-c]pyridin-3-yl)methyl)pyridazin-3-amine]: the remaining activity at 30 µM was 7% and the IC50 came to 668 nM.
Taken in the same sequence, the figures for `[2H]C([2H])(C1CCOCC1)N1CCc2c(CNc3ccc(-c4cc(F)ccc4Cl)nn3)cccc2C1` [B13, 6-(2-chloro-5-fluorophenyl)-N-((2-((tetrahydro-2H-pyran-4-yl)methyl-d2)-1,2,3,4-tetrahydroisoquinolin-5-yl)methyl)pyridazin-3-amine] were 4% and 150 nM.
For `[2H]C([2H])([2H])N(Cc1csc2c1CCN(CC1CCOCC1)C2)c1ccc(-c2cc(F)ccc2Cl)nn1` [A15, 6-(2-chloro-5-fluorophenyl)-N-(methyl-d3)-N-((6-((tetrahydro-2H-pyran-4-yl)methyl)-4,5,6,7-tetrahydrothieno[2,3-c]pyridin-3-yl)methyl)pyridazin-3-amine], the remaining activity at 30 µM came to 8% and the IC50 turned out to be 957 nM.
Taken in the same sequence, the figures for `c1ccc(-c2ccc(NCc3csc4c3CCN(CC3CCOCC3)C4)nn2)cc1` [A7, 6-phenyl-N-((6-((tetrahydro-2H-pyran-4-yl)methyl)-4,5,6,7-tetrahydrothieno[2,3-c]pyridin-3-yl)methyl)pyridazin-3-amine] were 6% and 477 nM.
In the same order, the values of `CC(C)(C)CCN1CCc2c(CNc3ccc(-c4cc(F)ccc4Cl)nn3)cccc2C1` [B2, 6-(2-chloro-5-fluorophenyl)-N-((2-(3,3-dimethylbutyl)-1,2,3,4-tetrahydroisoquinolin-5-yl)methyl)pyridazin-3-amine] are 6% and 98.9 nM.
Taken in the same sequence, the figures for `[2H]C([2H])(C1CCOCC1)N1CCc2c(CNc3ccc(-c4cc(F)cc(F)c4F)nn3)cccc2C1` [B14, N-((2-((tetrahydro-2H-pyran-4-yl)methyl-d2)-1,2,3,4-tetrahydroisoquinolin-5-yl)methyl)-6-(2,3,5-trifluorophenyl)pyridazin-3-amine] were 5% and 919 nM.
In the case of `[2H]C([2H])(C1CCOCC1)N1CCc2c(CNc3ccc(-c4cc(F)ccc4Cl)nn3)csc2C1` [A16, 6-(2-chloro-5-fluorophenyl)-N-((6-((tetrahydro-2H-pyran-4-yl)methyl-d2)-4,5,6,7-tetrahydrothieno[2,3-c]pyridin-3-yl)methyl)pyridazin-3-amine], the remaining activity at 30 µM stood at 5% and the IC50 worked out at 46.5 nM.
In the same order, the values of `Cn1cc2cc(-c3ccc(NCc4cccc5c4CCN(CC4CCOCC4)C5)nn3)ccc2n1` [B9, 6-(2-methyl-2H-indazol-5-yl)-N-((2-((tetrahydro-2H-pyran-4-yl)methyl)-1,2,3,4-tetrahydroisoquinolin-5-yl)methyl)pyridazin-3-amine] are 8% and 1250 nM.
In the case of `Fc1ccc(Cl)c(-c2ccc(NCc3csc4c3CCN(Cc3ccccn3)C4)nn2)c1` [A11, 6-(2-chloro-5-fluorophenyl)-N-((6-(pyridin-2-ylmethyl)-4,5,6,7-tetrahydrothieno[2,3-c]pyridin-3-yl)methyl)pyridazin-3-amine], the remaining activity at 30 µM came to 4% and the IC50 is 183 nM.
Turning to `OC1(CN2CCc3c(CNc4ccc(-c5cc(F)ccc5Cl)nn4)cccc3C2)CCCCC1` [B6, 1-((5-(((6-(2-chloro-5-fluorophenyl)pyridazin-3-yl)amino)methyl)-3,4-dihydroisoquinolin-2(1H)-yl)methyl)cyclohexan-1-ol], the remaining activity at 30 µM was 6% and the IC50 came to 257 nM.

By IC50 is commonly meant the concentration that gives 50% inhibition.
